Laboratory results taken from patent US8513280B2, “Use of epothilones in the treatment of neuronal connectivity defects such as schizophrenia and autism” (Institut National de la Sante et de la Recherche Medicale, priority 2004, dated 2013).
Several values for one entry are separate records, joined by “and”; a condition that tells them apart may be missing. Identical values can stand only once.

Key:
Format in all cases: in vivo, mouse
[1] = test system: STOP KO mice; assay: Pup survival in progeny of STOP KO mothers
Description: The epothilone treatment has been then tested whether it could induce pup survival in STOP KO mothers. Nine STOP KO mice treated with Epothilone D at 0.3 mg/kg/week and eight untreated females were mated the pups survival were analysed after delivery.

[2] = test system: STOP KO mice; assay: Synaptic vesicle density in CA1 hippocampal synapses (electron micrographs), STOP KO mice
Description: It reports the quantitative analysis of synaptic vesicle density in CA1 hippocampal synapses of mice treated or not with epothilone D 3 mg/kg/week or with neuroleptics (0.5 mg/kg/day haloperidol and 5 mg/kg/day chlorpromazine, in drinking water, from birth to adulthood). Synaptic vesicle density, calculated as the ratio of the number of vesicle/nerve terminal surface (after subtraction of the surface area occupied by mitochondria). Results (means+/−s.e.m.) are shown for pooled 75 measurements from five wild type mice and from five STOP KO mice either untreated or treated with Epothilone D. For neuroleptic control experiments, results (means+/−s.e.m.) are shown for pooled 75 measurements from three STOP KO mice either untreated or treated with neuroleptics.
Hippocampus was dissected out from transcardially fixed mice, sliced and embedded in Epon. To determine the surface density of synaptic vesicles, a total of cross sections of 75 synapses made of hippocampal CA1 region were photographed randomly, and the numbers of synaptic vesicles in each nerve pre-terminal were counted on the electron micrographs. Synaptic vesicles density of STOP KO mice following long term neuroleptic treatment (0.5 mg/kg/day haloperidol and 5 mg/kg/day chlorpromazine, in drinking water, from birth to adulthood) was also examined using the same protocol. […]

[3] = test system: STOP deficient mice; assay: Maternal behaviour: nest building and pup retrieving, STOP KO mice
Description: (§1) For maternal behaviour, STOP deficient or control wild type (WT) female mice, nulliparous, 8 weeks old, were treated either with a placebo (carrier alone), or with epothilone D.
(§2) The maternal behaviour of treated and untreated mice was monitored by assaying the mouse ability to build a nest and to retrieve pups
(§3) For assessment of nesting capacity, the tested mouse was placed in a 240×240×120 mm cage containing litter and provided with a Kleenex tissue folded in 4 (final dimensions, 100×100 mm). After 60 hours, the mouse ability to use the paper and to build a nest was scored as follows:
(§4) Tissue use score: 0, the Kleenex tissue remained folded; 1, the tissue has been unfolded but not shredded; 2 the tissue was shredded.
(§5) Nest building score: 0, no attempt to build a nest; 1, primitive flat nest of uncontrolled shape; 2, true nest, the paper is mixed with litter to form a circular nest, less than 80 mm in diameter.
(§6) For assessment of retrieving: following the nest building test, mice were trained and assessed for pup retrieving as in Andrieux et al. (Genes Dev. 2002 Sep. 15; 16(18):2350-64. Retrieving was scored as the number of pups retrieved (0 to 3).
Finally a global score for nesting and retrieving capacity (TNR) was determined for each mouse, by adding the tissue use, nest building, and pup retrieving scores (maximal score for TNR is 7).
The maternal behaviour of untreated and treated mice was monitored by assaying mouse ability to build a nest and to retrieve pups. Experiments were performed at 3 concentrations of epothilone D (4 mg/kg/week, 3 mg/kg/week and 0.3 mg/kg/week).
Among 69 STO KO mice, […] were treated with placebo injections, 17 were treated with 3 mg/kg/week of epothilone, and 18 were treated with 0.3 mg/kg/week of epothilone. Among 34 WT mice, 17 were treated with placebo injections, and 17 were treated with 3 mg/kg/week of epothilone.
In another series of experiments, among 19 STOP KO mice, 9 were treated with placebo injections, 10 with 4 mg/kg/week epothilone D and as control, among 20 WT mice, 10 were treated with placebo injections and 10 with 4 mg/kg/week epothilone D.

[4] = test system: WT mice; assay: Maternal behaviour: nest building and pup retrieving, WT mice; settings: example II
Description: as §1, §2, §3, §4, §5, §6
Finally a global score for nesting and retrieving capacity (TNR) was determined for each mouse, by adding the tissue use, nest building, and pup retrieving scores (maximal score for TNR is 7). […]

[5] = test system: STOP deficient mice; assay: Spontaneous activity, video-recorded during 3 h, STOP KO mice
Description: (§7) Spontaneous activity (male and female) was recorded and quantified during a three hours period of time, as in Andrieux et al., Genes Dev. 2002 Sep. 15; 16(18):2350-64. Five activities were considered: feeding, remaining still without sleeping, walking, grooming and sleeping. For each activity, the total time spent doing the activity and the number of distinct sequences of activity, were determined.
(§8) In a first series of experiments, epothilone D was injected intra-peritoneally, once a week, at either 0.3 mg/kg/week or 3 mg/kg/week for at least 8 weeks. The drug was diluted at a final concentration of 0.3 mg/ml in water, from a 50 mg/ml stock solution in DMSO.
(§9) In a second series of experiments, epothilone D was injected intra-peritoneally, in two injections a week, at a total dose of 4 mg/kg/week, for 8 weeks. The drug was diluted at a final concentration of 0.2 mg/ml in water, from a 50 mg/ml stock solution in DMSO.
(§10) Among 61 STOP KO mice, 28 were treated with placebo injections, 33 with 3 mg/kg/week of epothilone D. Among 62 WT mice, 29 were treated with placebo injections, 33 with 3 mg/kg/week of epothilone D.
(§11) In another series of experiments, among 19 STOP KO mice, 9 were treated with placebo injections, 10 with 4 mg/kg/week epothilone D. Among 20 WT mice, 10 were treated with placebo injections and 10 with 4 mg/kg/week epothilone D.

[6] = test system: WT mice; assay: Spontaneous activity, video-recorded during 3 h, WT mice
Description: as §7, §8, §9, §10, §11

[7] = STOP KO mice, 0.3 mg/kg/week i.p., FIG. 3
[8] = STOP KO mice, 3 mg/kg/week i.p., FIG. 3
[9] = STOP deficient mice, 4 mg/kg/week, FIG. 4
[10] = STOP deficient mice, 3 mg/kg/week i.p., FIG. 1-B
[11] = STOP deficient mice, 4 mg/kg/week, 8 weeks, FIG. 2

## C/C1=C/CC(/C(C)=C/c2csc(C)n2)OC(=O)CC(O)C(C)(C)C(=O)C(C)C(O)C(C)CCC1 (stereo not shown) [epothilone D]
[1]; 0.3 mg/kg/week, nine treated STOP KO females mated, no pup survival without treatment
  STOP KO females with pup survival: three out of the nine
[1]; 0.3 mg/kg/week, per mouse, the three STOP KO females with surviving pups
  ratio of surviving pups to newborns: 5/6 (2×) and 6/6
[1]; STOP deficient female mice, summary statement, dose not stated
  maternal behaviour, compatible with pup survival: re-established
[2]; CA1 hippocampal synapses, 4 mg/kg/week, p<0.001, FIG. 5
  increase of synaptic vesicle density relative to absence of treatment: 20%
[2]; summary statement, dose not stated
  increase of synaptic vesicle density: about 20%
[3]; [7]
  TNR score (global score, maximal 7): highly significant increase
  nest building score (0-2): improved
  paper use score (tissue use score, 0-2): improved
  pup retrieving score (0-3): improved
[3]; [8]
  TNR score (global score, maximal 7): highly significant increase
  nest building score (0-2): improved
  paper use score (tissue use score, 0-2): improved
  pup retrieving score (0-3): improved
[3]; STOP KO mice, 4 mg/kg/week, rose from 1.16 without treatment, highly significant increase, FIG. 4
  TNR score (global score, maximal 7): 4.4
[3]; [9]
  nest building score (0-2): strongly improved
  paper use score (tissue use score, 0-2): strongly improved
  pup retrieving score: tended to improve
[4]
  effect on nurturing-related behaviours: no significant effect
[5]; STOP KO mice, summary statement, dose not stated
  total number of shifts between activities: decrease
[5]; STOP deficient mice, 3 mg/kg/week i.p. once a week, at least 8 weeks, vs placebo, FIG. 1-A
  total time spent grooming: decrease
[5]; [10]
  number of remaining still while awake sequences: reducing
  number of walking sequences: reducing
[5]; STOP deficient mice, 3 mg/kg/week i.p., vs placebo, FIG. 1-A
  total time spent sleeping: increase
[5]; STOP deficient mice, 3 mg/kg/week i.p., vs placebo, FIG. 1-B
  total number of shifts between activities: decreased
[5]; STOP deficient mice, 4 mg/kg/week i.p. in two injections a week, 8 weeks, FIG. 2
  total number of shifts between activities: remarkable decrease
[5]; [11]
  number of feeding sequences: remained unaffected
  number of grooming sequences: decrease
  number of sleeping sequences: remained unaffected
  number of walking sequences: decrease
  total time spent grooming: highly significantly diminished
[5]; STOP deficient mice, 4 mg/kg/week, 8 weeks, trend (tended to increase), FIG. 2
  time spent sleeping: increase
[5]; STOP deficient mice, 4 mg/kg/week, 8 weeks, trend, FIG. 2
  time spent remaining still without sleeping: tended to diminish
[6]; 4 mg/kg/week, FIG. 2, said to be compatible with random fluctuations
  number of sequences of stillness: significant increase
[6]; example I (3 and 4 mg/kg/week)
  effect on the recorded activities: no significant effect
